# Reference: ChEMBL document CHEMBL1156206, “Pyrazolone-fused combretastatins and their precursors: synthesis, cytotoxicity, antitubulin activity and molecular modeling studies” (Bioorg Med Chem, 2010)
# Active and inactive are the calls of the source. The calls are words filed in the database; no cut-off is given here.
# What was measured:
# MIA PaCa-2 = assay: Cytotoxicity against human MIAPaCa2 cells after 72 hrs by MTT assay; format: functional, cell-based; conditions: MIA PaCa-2, 72 h
# [1] = Inhibition of tubulin polymerization
# RT-112 = assay: Cytotoxicity against human RT112 cells after 72 hrs by MTT assay; format: functional, cell-based; conditions: RT-112, 72 h
# HeLa [2] = assay: Cytotoxicity against human HeLa cells after 72 hrs by MTT assay; format: functional, cell-based
# [3] = Inhibition of tubulin polymerization at 20 uM relative to control
# T-24 = assay: Cytotoxicity against human T24 cells after 72 hrs by MTT assay; format: functional, cell-based; conditions: T-24, 72 h
# SW-620 = assay: Cytotoxicity against human SW620 cells after 72 hrs by MTT assay; format: functional, cell-based; conditions: SW-620, 72 h
# HEp-2 [4] = assay: Cytotoxicity against human Hep2 cells after 72 hrs by MTT assay; format: functional, cell-based; conditions: HEp-2, 72 h
# HEp-2 [5] = assay: Cytotoxicity against human cisplatin-resistant Hep2 cells after 72 hrs by MTT assay; format: functional, cell-based; conditions: HEp-2, 72 h
# HeLa [6] = assay: Cell cycle arrest in human HeLa cells assessed as accumulation of cells in G2/M phase at 2.2 uM after 24 hrs using propidium iodide by flow cytometry; format: functional
# HeLa [7] = assay: Induction of microtubule network disruption in human HeLa cells at 0.02 uM after 24 hrs by immunofluorescence assay; format: functional, cell-based
# HeLa [8] = assay: Cell cycle arrest in human HeLa cells assessed as accumulation of cells in G2/M phase at 0.02 uM after 24 hrs using propidium iodide by flow cytometry; format: functional
# HeLa [9] = assay: Induction of microtubule network disruption in human HeLa cells at 2.2 uM after 24 hrs by immunofluorescence assay; format: functional, cell-based
# HeLa [10] = assay: Cell cycle arrest in human HeLa cells assessed as accumulation of cells in G0/1 phase at 0.2 uM after 24 hrs using propidium iodide by flow cytometry; format: functional
# HeLa [11] = assay: Induction of apoptosis in human HeLa cells assessed as cells containing hypodiploid DNA at 0.02 uM after 24 hrs by flow cytometry; format: functional
# HeLa [12] = assay: Cell cycle arrest in human HeLa cells assessed as accumulation of cells in S phase at 0.2 uM after 24 hrs using propidium iodide by flow cytometry; format: functional
# HeLa [13] = assay: Induction of apoptosis in human HeLa cells assessed as cells containing hypodiploid DNA at 2.2 uM after 24 hrs by flow cytometry; format: functional
# HeLa [14] = assay: Cell cycle arrest in human HeLa cells assessed as accumulation of cells in G2/M phase at 0.2 uM after 24 hrs using propidium iodide by flow cytometry; format: functional
# HeLa [15] = assay: Cell cycle arrest in human HeLa cells assessed as accumulation of cells in G0/1 phase at 0.02 uM after 24 hrs using propidium iodide by flow cytometry; format: functional
# HeLa [16] = assay: Induction of microtubule network disruption in human HeLa cells at 0.2 uM after 24 hrs by immunofluorescence assay; format: functional, cell-based
# HeLa [17] = assay: Cell cycle arrest in human HeLa cells assessed as accumulation of cells in S phase at 0.02 uM after 24 hrs using propidium iodide by flow cytometry; format: functional
# HeLa [18] = assay: Cell cycle arrest in human HeLa cells assessed as accumulation of cells in G0/1 phase at 2.2 uM after 24 hrs using propidium iodide by flow cytometry; format: functional
# HeLa [19] = assay: Cell cycle arrest in human HeLa cells assessed as accumulation of cells in S phase at 2.2 uM after 24 hrs using propidium iodide by flow cytometry; format: functional
# HeLa [20] = assay: Induction of apoptosis in human HeLa cells assessed as cells containing hypodiploid DNA at 0.2 uM after 24 hrs by flow cytometry; format: functional
# [21] = Homo sapiens, HeLa, 72 h, read-out: IC50
compound,measurement,setting,value
COc1ccc(-c2[nH][nH]c(=O)c2-c2cc(OC)c(OC)c(OC)c2)cc1O,IC50,MIA PaCa-2,0.462 µM
same,IC50,[1],1.7 µM
same,IC50,RT-112,2.08 µM
same,IC50,HeLa [2]; [21],0.176 µM
same,inhibition,[3],99%
same,IC50,T-24,0.619 µM
same,IC50,SW-620,0.543 µM
same,IC50,HEp-2 [4],1.14 µM
same,IC50,HEp-2 [5],0.709 µM
COC(=O)NNC(=O)/C(=C/c1cccc(F)c1)c1cc(OC)c(OC)c(OC)c1,IC50,HeLa [2]; [21],> 50 µM
same,inhibition,[3],10%
COc1ccc(-c2c(-c3cc(OC)c(OC)c(OC)c3)[nH][nH]c2=O)cc1OC,IC50,HeLa [2]; [21],> 50 µM
same,inhibition,[3],4%
COC(=O)n1[nH]c(=O)c(-c2ccc(OC)c(OC)c2)c1-c1cc(OC)c(OC)c(OC)c1,IC50,HeLa [2]; hela,Not Active
same,inhibition,[3],0%
COC(=O)NNC(=O)/C(=C/c1ccc(OC)c(OC)c1)c1cc(OC)c(OC)c(OC)c1,IC50,HeLa [2]; [21],> 50 µM
same,inhibition,[3],0%
COC(=O)n1[nH]c(=O)c(-c2cc(OC)c(OC)c(OC)c2)c1-c1ccc2ccccc2c1,IC50,HeLa [2]; [21],0.523 µM
same,inhibition,[3],3%
COc1cc(-c2c(-c3cccc4ccccc34)[nH][nH]c2=O)cc(OC)c1OC,IC50,HeLa [2]; [21],> 50 µM
same,inhibition,[3],0%
COC(=O)NNC(=O)/C(=C/c1cccc2ccccc12)c1cc(OC)c(OC)c(OC)c1,IC50,HeLa [2]; [21],1.3 µM
same,inhibition,[3],55%
COc1ccc(-c2[nH][nH]c(=O)c2-c2cc(OC)c(OC)c(OC)c2)cc1,IC50,MIA PaCa-2,0.575 µM
same,IC50,[1],2.6 µM
same,IC50,RT-112,1.89 µM
same,IC50,HeLa [2]; [21],0.152 µM
same,inhibition,[3],100%
same,IC50,T-24,1.16 µM
same,IC50,SW-620,0.455 µM
same,IC50,HEp-2 [4],0.529 µM
same,IC50,HEp-2 [5],0.615 µM
COc1ccc(/C=C\c2cc(OC)c(OC)c(OC)c2)cc1O [COMBRETASTATIN A4],IC50,MIA PaCa-2,0.0072 µM
same,IC50,[1],1.7 µM
same,Activity,HeLa [6],91.1%
same,IC50,RT-112,0.0216 µM
same,IC50,HeLa [2]; [21],0.002 µM
same,inhibition,[3],89%
same,IC50,T-24,0.0087 µM
same,IC50,SW-620,0.023 µM
same,Activity,HeLa [7],Active
same,IC50,HEp-2 [4],0.0055 µM
same,IC50,HEp-2 [5],0.0052 µM
COC(=O)NNC(=O)/C(=C/c1cc(OC)c(OC)cc1OC)c1ccc(OC)c(OC)c1,IC50,HeLa [2]; hela,Not Active
same,inhibition,[3],0%
COc1ccc(-c2[nH][nH]c(=O)c2-c2cc(OC)c(OC)c(OC)c2)cc1F,IC50,MIA PaCa-2,0.556 µM
same,IC50,RT-112,3.32 µM
same,IC50,HeLa [2]; [21],0.158 µM
same,inhibition,[3],100%
same,IC50,T-24,1.15 µM
same,IC50,SW-620,0.487 µM
same,IC50,HEp-2 [4],1.18 µM
same,IC50,HEp-2 [5],0.684 µM
COC(=O)n1[nH]c(=O)c(-c2ccc(OC)c(OC)c2)c1-c1cc(OC)c(OC)cc1OC,IC50,HeLa [2]; hela,Not Active
same,inhibition,[3],2%
COC(=O)n1[nH]c(=O)c(-c2cc(OC)c(OC)c(OC)c2)c1-c1ccc(OC)c(OC(C)=O)c1,IC50,HeLa [2]; [21],0.337 µM
same,inhibition,[3],0%
COC(=O)n1[nH]c(=O)c(-c2cc(OC)c(OC)c(OC)c2)c1-c1cccc2ccccc12,IC50,HeLa [2]; [21],> 50 µM
same,inhibition,[3],7%
COC(=O)NNC(=O)/C(=C/c1ccc(OC)c(F)c1)c1cc(OC)c(OC)c(OC)c1,IC50,HeLa [2]; [21],0.667 µM
same,inhibition,[3],66%
COC(=O)NNC(=O)/C(=C/c1ccc(OC)c(OC(C)=O)c1)c1cc(OC)c(OC)c(OC)c1,IC50,HeLa [2]; [21],0.498 µM
same,inhibition,[3],25%
COC(=O)n1[nH]c(=O)c(-c2cc(OC)c(OC)c(OC)c2)c1-c1cccc(F)c1,IC50,HeLa [2]; hela,Not Active
same,inhibition,[3],1%
COc1cc(-c2c(-c3cccc(F)c3)[nH][nH]c2=O)cc(OC)c1OC,IC50,HeLa [2]; [21],> 50 µM
same,inhibition,[3],0%
COC(=O)n1[nH]c(=O)c(-c2cc(OC)c(OC)c(OC)c2)c1-c1ccc(OC)c(OC)c1,IC50,HeLa [2]; [21],36.3 µM
same,inhibition,[3],3%
COC(=O)n1[nH]c(=O)c(-c2cc(OC)c(OC)c(OC)c2)c1-c1ccc(OC)cc1,IC50,HeLa [2]; [21],0.959 µM
same,inhibition,[3],0%
COC(=O)NNC(=O)/C(=C/c1ccc(OC)cc1)c1cc(OC)c(OC)c(OC)c1,IC50,HeLa [2]; [21],1.31 µM
same,inhibition,[3],26%
COC(=O)n1[nH]c(=O)c(-c2cc(OC)c(OC)c(OC)c2)c1-c1ccc(OC)c(F)c1,IC50,HeLa [2]; [21],1.72 µM
same,inhibition,[3],9%
COC(=O)NNC(=O)/C(=C/c1ccc2ccccc2c1)c1cc(OC)c(OC)c(OC)c1,IC50,MIA PaCa-2,0.127 µM
same,Activity,HeLa [8],11.5%
same,Activity,HeLa [9],Active
same,Activity,HeLa [10],2.7%
same,Activity,HeLa [11],6.9%
same,Activity,HeLa [12],10.8%
same,IC50,[1],2.7 µM
same,Activity,HeLa [13],21.4%
same,Activity,HeLa [6],90.5%
same,IC50,RT-112,0.196 µM
same,IC50,HeLa [2]; [21],0.048 µM
same,Activity,HeLa [14],86.6%
same,Activity,HeLa [15],60.2%
same,inhibition,[3],97%
same,IC50,T-24,0.185 µM
same,IC50,SW-620,0.0743 µM
same,Activity,HeLa [7],inactive
same,IC50,HEp-2 [4],0.054 µM
same,Activity,HeLa [16],Active
same,Activity,HeLa [17],28.3%
same,Activity,HeLa [18],1.2%
same,Activity,HeLa [19],7.9%
same,Activity,HeLa [20],21.1%
same,IC50,HEp-2 [5],0.051 µM
COc1ccc(-c2c(-c3cc(OC)c(OC)cc3OC)[nH][nH]c2=O)cc1OC,IC50,HeLa [2]; [21],> 50 µM
same,inhibition,[3],0%
COc1cc(-c2c(-c3ccc4ccccc4c3)[nH][nH]c2=O)cc(OC)c1OC,IC50,[1],1.9 µM
same,IC50,HeLa [2]; [21],0.114 µM
same,inhibition,[3],98%
COc1ccc(-c2[nH][nH]c(=O)c2-c2cc(OC)c(OC)c(OC)c2)cc1OC,IC50,HeLa [2]; [21],5.27 µM
same,inhibition,[3],31%
COC(=O)NNC(=O)/C(=C/c1cc(OC)c(OC)c(OC)c1)c1ccc(OC)c(OC)c1,IC50,HeLa [2]; [21],> 50 µM
same,inhibition,[3],0%
